Here are results for 3 compounds from US20060115492A1, “Pharmaceutical composition and health food comprising extract of Phellinus sp. PL3 or phellinsin a isolated from the same as an effective component for prevention and treatment of cardiovascular disease” (Korea Research Institute of Bioscience and Biotechnology, priority 2004, published 2006).

Series [1] relates to LDL. Put plainly: Anti-oxidation to LDL by TBARS method (Cu2+-mediated LDL oxidation). It counts as biochemical, human. Conditions: read-out: IC50 (anti-oxidant activity to LDL).
Experimental: The Phellinus sp. PL3 extract and the phellinsin A isolated from the same prepared as described in Examples were examined for their anti-oxidant activity to LDL as follows.
In the present invention, dialdehydes as an oxidative product of unsaturated fatty acids was measured by performing TBARS (thiobarbituric acid-reactive substances) method to investigate the anti-oxidant activities of Phellinus sp. PL3 extract and the phellinsin A isolated from Phellinus sp PL3.
300 mL of human plasma was centrifuged at 100,000×g for 24 hours with an ultracentrifuge to remove a very low density lipoprotein (VLDL)/chylomicron layer floated on the supernatant. The remaining solution was adjusted to 1.063 g/mL of gravity and centrifuged at 100,000×g for 24 hours to separate again 25 mL (1.5-2.5 mg protein/mL) of LDL floated on the supernatant. […]
Then, 10 μL of 0.25 mM CuSO4 was added to the resulting solution, reacted at 37° C. for 4 hours and added with 1 mL of 20% trichloroacetic acid (TCA) solution to stop the reaction. […] The resulting solution was centrifuged at 3,000 rpm for 5 min to separate supernatant and measured the absorbance at 540 nm with a UV-visible spectrophotometer. Finally, the amount of malondialdehyde (MDA) generated by the coloring reaction was determined.
In the experiment using Phellinus sp. […] PL3, the amount of malondialdehyde was quantified by using this standard curve.
Series [2] relates to LDL. Put plainly: Anti-oxidant activity by monitoring conjugated dienes continuously (LDL oxidation, absorbance at 234 nm). It counts as biochemical, human. Conditions: control lag time 44 min. How it is done: 240 μL of LDL (120 μg/mL of protein concentration) separated in Experimental Example 1 was mixed with 2,510 μL of 10 mM phosphate buffer solution and added with 10 μL of phellinsin A solution prepared in 2 kinds of concentration (2 μM and 5 μM), respectively. At this moment, the phellinsin A was utilized after dissolved in DMSO and for a negative control, only solvent was added. For a positive control, probucol was added before use.
Then, 240 μL of 0.125 mM CuSO4 was added to the resulting solution, reacted at 37° C. for 4 hours and coincidently, measured by monitoring the absorbance at 234 nm with a UV-visible spectrophotometer at 10 min intervals.

Another series is described as follows: DPPH radical scavenging. Format: biochemical. As to conditions: for Radical scavenging activity (%): 100 μM solutions in methanol; for IC50: after 35 min, read-out: IC50 (DPPH free radical scavenging). As to the method:
Phellinsin A and 1-diphenyl-2-picryl hydrazyl (DPPH) were dissolved in methanol to be adjusted to 100 μM of concentration, respectively. Then, 1 mL of phellinsin A solution was mixed with 2 mL of DPPH solution and stirred well. […]
(Loss of DPPH colour is used to gauge radical scavenging.)

The test system of series [3] is macrophage-mediated LDL oxidation (THP-1 cells). Put plainly: Macrophage-mediated LDL oxidation (THP-1 cells, TBARS). It counts as cell-based. As to conditions: for MDA nmol/mg LDL protein: LDL + cell + Cu2+, control 210.6 ± 10.7. As to the method:
Then, the resulting cells were cultivated for 3 days and activated by using macrophages sufficiently.
Phellinsin A was dissolved in DMSO and diluted in various concentrations before used in the experiment. In order to catalyze the macrophage-mediated LDL oxidation, 2μL of 0.5 mM CuSO4 was added to the phellinsin A solution. Incubation was then carried out for 24 hours at 37° C. under a humidified atmosphere containing 5% CO2.

Series [4] is described as follows: Acute toxicity test of oral administration in mice. Format: in vivo. Conditions: both sexes, ICR, mouse, in vivo, po. As to the method: (§1) In order to investigate the acute toxicity of Phellinus sp. PL3 extract or phellinsin A isolated from the same according to the present invention, the experimental procedure is performed as follows.
(§2) 4-week old specific pathogens free (SPF) ICR mice were adopted in 12 of female and 12 of male mice (3 male and female mice/dose group, respectively) and raised in a breeding room under 12 L/12 D of light kept at temperature of 22±3° C. humidity of 55±10%. The experimental mice were adapted for a week before use. Animal fodder (purchased from Cheil Feed Co. Ltd., for mice and rat uses) and water were provided after sterilized and fed freely.
(§3) The Phellinus sp. PL3 extract and phellinsin A isolated from the same prepared in Examples were made to 50 mg/mL of concentration by using 0.55% Tween 80 solvent and orally administered in 0.04 mL (100 mg/kg), 0.2 mL (500 mg/kg) and 0.4 mL (1,000 mg/kg) per 20 g of body weight. […]
(§4) In addition, the experimental mice were killed, anatomized and examined on inner organs with the naked eyes in 7 days of administration. In a day interval from the 1st day, the body weights were measured to examine whether the Phellinus sp. […]

In the next series the test system is ICR mice. Put plainly: Acute toxicity test of oral administration in mice. Format: in vivo. As to conditions: oral 100, 500 and 1,000 mg/kg once, ICR mice, 7 days. How it is done:
as §1, §2, §3, §4

For series [5], the target named is T1, chitin synthase 2 of Saccharomyces cerevisiae (Saccharomyces cerevisiae, UniProt P14180).
T1 sequence (P14180 1-963): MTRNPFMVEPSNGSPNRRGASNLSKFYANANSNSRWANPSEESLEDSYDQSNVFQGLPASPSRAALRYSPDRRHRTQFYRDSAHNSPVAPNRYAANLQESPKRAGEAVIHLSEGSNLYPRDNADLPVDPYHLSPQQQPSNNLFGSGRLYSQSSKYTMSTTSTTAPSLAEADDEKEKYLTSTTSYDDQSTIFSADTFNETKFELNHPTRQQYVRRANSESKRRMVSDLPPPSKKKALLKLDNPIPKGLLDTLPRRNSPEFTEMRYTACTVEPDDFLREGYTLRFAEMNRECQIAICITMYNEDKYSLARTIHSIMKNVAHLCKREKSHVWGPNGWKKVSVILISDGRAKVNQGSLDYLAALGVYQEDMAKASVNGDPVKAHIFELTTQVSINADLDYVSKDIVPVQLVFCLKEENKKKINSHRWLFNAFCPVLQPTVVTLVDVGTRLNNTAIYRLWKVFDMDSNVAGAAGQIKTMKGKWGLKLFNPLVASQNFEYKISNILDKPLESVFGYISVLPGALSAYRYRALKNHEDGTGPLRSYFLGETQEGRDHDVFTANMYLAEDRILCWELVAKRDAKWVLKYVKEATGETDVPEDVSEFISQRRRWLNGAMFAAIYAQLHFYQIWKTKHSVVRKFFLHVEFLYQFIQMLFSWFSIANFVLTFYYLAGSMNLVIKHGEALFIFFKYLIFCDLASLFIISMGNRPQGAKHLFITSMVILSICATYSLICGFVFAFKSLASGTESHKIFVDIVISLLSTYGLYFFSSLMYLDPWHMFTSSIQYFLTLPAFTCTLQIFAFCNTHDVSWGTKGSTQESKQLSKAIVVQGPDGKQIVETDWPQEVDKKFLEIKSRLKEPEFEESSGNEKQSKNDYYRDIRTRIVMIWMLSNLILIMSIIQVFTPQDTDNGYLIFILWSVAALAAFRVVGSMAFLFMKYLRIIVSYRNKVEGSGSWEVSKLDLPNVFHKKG
As to conditions: J. Antibiotics, 2000, 9: 903-911; cited from earlier work.

For `O=C1OC(c2ccc(O)c(O)c2)C(C(=O)O)/C1=C\c1ccc(O)c(O)c1` (stereo not shown) [Phellinsin A, phellinsin A], the values for the IC50 in the series with LDL [1] and in the series “DPPH radical scavenging” were 5.3 µM and 1.7 µM, respectively. In addition, the “lag time (conjugated dienes)” value in the series on LDL [2] (2 μM) is reported as 192 min; with LDL [2] (5 μM, monitored up to 240 min), more than 240 min. The “Radical scavenging activity (%)” value is 55% in “DPPH radical scavenging” (5 min), 87% in “DPPH radical scavenging” (10 min) and 92% in “DPPH radical scavenging” (30 min). For the same compound, the “MDA nmol/mg LDL protein” value is reported as 167.7 ± 6.2 nmol/mg LDL protein in series [3] (1 μM), 94.2 ± 4.7 nmol/mg LDL protein in series [3] (2 μM), 55.9 ± 2.8 nmol/mg LDL protein in series [3] (5 μM) and 39.4 ± 0.9 nmol/mg LDL protein in series [3] (10 μM). In addition, the “anti-oxidant activity relative to probucol on macrophage-mediated LDL oxidation” value in series [3] (2-10 μM, times stronger than probucol) is recorded as 2-3.7 times. Also, the LD50 (commonly the dose expected to kill half of the subjects tested) at 7 days in series [4] is not below 1000 mg/kg. Moreover, the “toxicity (clinical symptoms, deaths, body weight, blood tests, autopsy)” value in the series on ICR mice is reported as “no toxicity”. Besides, the “inhibition of chitin synthase 2” value in series [5] was “highly inhibit”.
Consider `Cc1c(C)c2c(c(C)c1O)CCC(C)(C(=O)O)O2` (stereo not shown) [trolox, reference compound], for which, in the series “DPPH radical scavenging”, the IC50 – broadly, the concentration at which inhibition is half-maximal – was 18.6 µM.
Take `CC(C)(Sc1cc(C(C)(C)C)c(O)c(C(C)(C)C)c1)Sc1cc(C(C)(C)C)c(O)c(C(C)(C)C)c1` [Probucol, probucol, reference compound]: the “lag time (conjugated dienes)” value worked out at 63 min with LDL [2] (2 μM) and 70 min in the series on LDL [2] (5 μM, monitored up to 240 min). Besides, the “MDA nmol/mg LDL protein” value in series [3] (1 μM) is recorded as 209.7 ± 1.7 nmol/mg LDL protein; in series [3] (2 μM) it was 199.1 ± 10.7 nmol/mg LDL protein; in series [3] (5 μM) it was 157.4 ± 2.4 nmol/mg LDL protein; in series [3] (10 μM), 145.5 ± 3.9 nmol/mg LDL protein.
